Patent publication US20150181873A1, “HERBICIDE-RESISTANT SUNFLOWER PLANTS, POLYNUCLEOTIDES ENCODING HERBICIDE=RESISTANT ACETO HYDROXY ACID SYNTHASE LARGE SUBUNIT PROTEINS, AND METHODS OF USE” (NIDERA S.A., priority 2013, published 2015)

How the values were obtained:
[1] = system: Clearfield sunflower variety C; test: Greenhouse spray injury rating, Clearfield variety C; format: in vivo, Helianthus annuus; conditions: imazapyr 240 gm ai/ha, scale 0-9
Source text: Sunflower lines S4897, Clearfield® sunflower varieties A, B, C and a conventional non-Clearfield variety were sprayed with three rates of imazamox (Raptor™), 100, 200 and 300 gm ai/ha plus 0.5% Sun It II and two rates of imazapyr (Arsenal™) 160 and 360 gm ai/ha plus 0.5% Sun It II when the plants were at the two to three leaf stage. Ratings were taken at 14 days after application (DAT) for injury. Injury was rated on a scale from 0 to 9 where 0=no injury to 9=dead plant. Twelve plants were sprayed per herbicide/rate treatment. Statistical analysis was conducted with STATGRAPHICS Plus 5.0 by using ANOVA and LSD procedures.
After plants were sprayed, it was realized that a height difference between S4897 and other sunflower varieties would have impacted the actual herbicide dose that was delivered. The spray boom height had been calibrated against S4897 and since the other varieties were taller and closer to the boom they would have received a greater dose of herbicide. Rates were recalibrated for the other varieties to determine the approximate dose they would have received. Assessments were made as presented in Table 2 since it was not possible to make a direct rate comparison due to the effect of the height. For example injury scores were compare for S4897 treated imazamox rate 100 gm ai/ha to the other varieties treated at 75 gm ai/ha. The treatment dose of 300 gm ai/ha for line S4897 was equivalent to the treatment of 200 gm ai/ha for the other varieties, which […].

[2] = system: sunflower hybrid TH9 (A205V); test: Greenhouse imazapir dose response, TH9; format: in vivo, Helianthus annuus; conditions: 14 DAT
Procedure: A greenhouse study was conducted to quantify and contrast the imazapir sensivity of the mutants A122T and A205V in different genetic backgrounds at the whole plant level in sunflower. Seeds of the different sunflower lines that were used in this study were obtained under field conditions.
Seeds were sown in Petri dishes and, after germination, plantlets were transplanted to pots of 10 cm of diameter in a potting media consisting of equal parts of vermiculite, soil and sand. Plants were grown in a greenhouse under natural light conditions supplemented with 400 W sodium halide lamps to provide a 16 hrs daylength. Day/night temperatures were 25 and 20° C., respectively. At the V2 stage 10 plants of each genotype were randomly assigned to each treatment consisting of […] imazapir doses (0, 40, 80, 160, 240, 320, 400 and 480 g ai/ha), and a zero-time biomass determination. Experiment was arranged as a randomized block design with a full factorial (sunflower line×treatment) arrangement of treatments and 10 replications.
On the day of herbicide application ten plants of each genotype were cut at the cotyledonal node and dried at 60° C. for 48 hrs zero-time for dried weight determination. […] Height was determined as the distance between the cotyledonal node and the apex of each plant. For root biomass determination, each plant was taken from the pot and the potting media was washed out from the roots. Above ground biomass data from each line were converted to biomass accumulation after application by subtracting the appropriate average zero-time biomass from each sample. Dry biomass data were converted to percentages of the untreated control plants within each line to allow direct comparisons between groups.

CC(C)C1(C)N=C(c2ncccc2C(=O)O)NC1=O (centres unmarked) [Imazapyr, imazapyr]
Injury at 14 DAT [1]: 4.9 c
Phytotoxicity Index ([2]; 0.5x (40 g ai/ha)): 0
biomass accumulation, % of untreated ([2]; 0.5x (40 g ai/ha)): 91.7%
plant height, % of untreated ([2]; 0.5x (40 g ai/ha)): 100.0%
root dry weight, % of untreated ([2]; 0.5x (40 g ai/ha)): 81.5%
Phytotoxicity Index ([2]; 1x (80 g ai/ha)): 0
biomass accumulation, % of untreated ([2]; 1x (80 g ai/ha)): 81.7%
plant height, % of untreated ([2]; 1x (80 g ai/ha)): 100.0%
root dry weight, % of untreated ([2]; 1x (80 g ai/ha)): 84.9%
Phytotoxicity Index ([2]; 2x (160 g ai/ha)): 1.6
biomass accumulation, % of untreated ([2]; 2x (160 g ai/ha)): 54.7%
plant height, % of untreated ([2]; 2x (160 g ai/ha)): 78.9%
root dry weight, % of untreated ([2]; 2x (160 g ai/ha)): 58.8%
Phytotoxicity Index ([2]; 3x (240 g ai/ha)): 5.1
biomass accumulation, % of untreated ([2]; 3x (240 g ai/ha)): 35.7%
plant height, % of untreated ([2]; 3x (240 g ai/ha)): 50.0%
root dry weight, % of untreated ([2]; 3x (240 g ai/ha)): 34.1%
Phytotoxicity Index ([2]; 4x (320 g ai/ha)): 8.4
biomass accumulation, % of untreated ([2]; 4x (320 g ai/ha)): 25.3%
plant height, % of untreated ([2]; 4x (320 g ai/ha)): 38.1%
root dry weight, % of untreated ([2]; 4x (320 g ai/ha)): 27.3%
Phytotoxicity Index ([2]; 5x (400 g ai/ha)): 8.9
biomass accumulation, % of untreated ([2]; 5x (400 g ai/ha)): 19.8%
plant height, % of untreated ([2]; 5x (400 g ai/ha)): 31.8%
root dry weight, % of untreated ([2]; 5x (400 g ai/ha)): 29.9%
Phytotoxicity Index ([2]; 6x (480 g ai/ha)): 8.9
biomass accumulation, % of untreated ([2]; 6x (480 g ai/ha)): 19.5%
plant height, % of untreated ([2]; 6x (480 g ai/ha)): 34.7%
root dry weight, % of untreated ([2]; 6x (480 g ai/ha)): 22.1%
